Laboratory results published in ChEMBL document CHEMBL5370659 (J Med Chem, 2023).
In brackets after ≈: the same amount, converted by molar mass. Values belong to the compound of their own block, whether it stands above or below them.

Key:
[1] = molecular target: T1, Tryptophan 5-hydroxylase 2 (Homo sapiens, UniProt Q8IWU9); experiment: Inhibition of recombinant MBP-tagged full length human THP2 using L-Trp as substrate assessed as formation of 5-HTP by measuring fluorescent property
T1 sequence (Q8IWU9 whole entry): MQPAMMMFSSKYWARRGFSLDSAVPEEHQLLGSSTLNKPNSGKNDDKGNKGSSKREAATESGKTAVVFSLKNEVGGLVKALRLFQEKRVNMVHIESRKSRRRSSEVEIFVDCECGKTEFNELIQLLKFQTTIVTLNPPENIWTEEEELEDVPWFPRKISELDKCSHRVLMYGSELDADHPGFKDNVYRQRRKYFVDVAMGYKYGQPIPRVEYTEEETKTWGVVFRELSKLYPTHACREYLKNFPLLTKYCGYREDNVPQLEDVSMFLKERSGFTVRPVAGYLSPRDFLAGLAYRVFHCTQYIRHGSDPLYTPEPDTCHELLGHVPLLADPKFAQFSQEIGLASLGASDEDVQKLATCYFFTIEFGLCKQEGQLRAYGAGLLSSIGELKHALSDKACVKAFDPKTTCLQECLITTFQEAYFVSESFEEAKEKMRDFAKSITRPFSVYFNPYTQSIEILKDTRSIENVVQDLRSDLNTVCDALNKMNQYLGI

[2] = molecular target: T2, Tryptophan 5-hydroxylase 1 (Homo sapiens, UniProt P17752); experiment: Inhibition of recombinant MBP-tagged full length human THP1 using L-Trp as substrate assessed as formation of 5-HTP by measuring fluorescent property
T2 sequence (P17752 whole entry): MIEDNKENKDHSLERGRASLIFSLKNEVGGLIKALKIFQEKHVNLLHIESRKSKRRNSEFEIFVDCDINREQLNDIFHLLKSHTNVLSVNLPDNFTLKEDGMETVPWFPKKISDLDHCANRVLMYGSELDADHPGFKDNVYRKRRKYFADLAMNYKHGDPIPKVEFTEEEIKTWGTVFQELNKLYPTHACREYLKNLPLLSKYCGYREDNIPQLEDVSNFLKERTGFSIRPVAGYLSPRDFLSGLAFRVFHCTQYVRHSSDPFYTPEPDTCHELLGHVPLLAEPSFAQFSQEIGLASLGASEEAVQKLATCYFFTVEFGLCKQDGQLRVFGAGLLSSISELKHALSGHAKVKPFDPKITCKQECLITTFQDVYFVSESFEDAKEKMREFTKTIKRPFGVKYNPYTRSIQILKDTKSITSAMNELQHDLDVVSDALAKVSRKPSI

[3] = Metabolic stability in human hepatocytes assessed as intrinsic clearance; assay type: ADME, cell-based, Hepatocyte; conditions: read-out: CLH
[4] = Brain homogenate binding in rat; assay type: ADME, tissue-based
[5] = Apparent permeability across basal to apical side in human Caco-2 cells at pH 6.5/7.4 measured at 5 uM by LC-MS/MS analysis; assay type: ADME, cell-based; conditions: Caco-2, pH 6.5
[6] = Brain homogenate binding in mouse; assay type: ADME, tissue-based
[7] = Plasma protein binding in rat; assay type: ADME, cell-free; conditions: read-out: PPB (converted)
[8] = Aqueous solubility of the compound in pH 7.4 PBS buffer by HPLC-UV analysis; assay type: physicochemical
[9] = Permeability across basal to apical side in MDCK-MDR1 cells at pH 6.5/7.4 measured at 5 uM by LC-MS/MS analysis; assay type: ADME, cell-based, Canis lupus familiaris; conditions: dog, MDCK-MDR1, pH 6.5
[10] = Permeability across apical to basal side in MDCK-MDR1 cells at pH 6.5/7.4 measured at 5 uM by LC-MS/MS analysis; assay type: ADME, cell-based, Canis lupus familiaris; conditions: dog, MDCK-MDR1, pH 6.5
[11] = Metabolic stability in rat hepatocytes assessed as half life; assay type: ADME, cell-based, Hepatocyte
[12] = Plasma protein binding in human; assay type: ADME, cell-free; conditions: read-out: PPB (converted)
[13] = Apparent permeability across apical to basal side in human Caco-2 cells at pH 6.5/7.4 measured at 5 uM by LC-MS/MS analysis; assay type: ADME, cell-based; conditions: Caco-2, pH 6.5
[14] = Metabolic stability in human hepatocytes assessed as half life; assay type: ADME, cell-based, Hepatocyte
[15] = Metabolic stability in rat hepatocytes assessed as intrinsic clearance; assay type: ADME, cell-based, Hepatocyte; conditions: read-out: CLH
[16] = Solubility in simulated gastric fluid by HPLC-UV analysis; assay type: physicochemical
[17] = Solubility in simulated intestinal fluid by HPLC-UV analysis; assay type: physicochemical

IC50 [1]: 116 nM
IC50 [2]: 676 nM
Compound: CCn1c(=O)[nH]c(=O)c2c1nc(Cc1cn3cc(C)sc3n1)n2CCC=C(C)C

CLint scaled [3]: < 8.6 mL/min/kg
Activity [4]: < 1%
Papp B→A at 5 µM [5]: 29 ×10⁻⁶ cm/s
Activity [6]: < 1%
fraction unbound [7]: 0.5
IC50 [1]: 37 nM
solubility [8]: 200 µM (≈ 84.2 µg/mL)
Papp B→A at 5 µM [9]: 30 ×10⁻⁶ cm/s
Papp A→B at 5 µM [10]: < 0.64 ×10⁻⁶ cm/s
half-life [11]: > 145 min
fraction unbound [12]: 0.38
Papp A→B at 5 µM [13]: 0.26 ×10⁻⁶ cm/s
half-life [14]: > 145 min
CLint scaled [15]: < 17 mL/min/kg
IC50 [2]: 118 nM
Compound: CCn1c(=O)[nH]c(=O)c2c1nc(Cc1cn3cc(Cl)sc3n1)n2CC1COC1

IC50 [1]: > 10000 nM
IC50 [2]: > 10000 nM
Compound: CCn1c(=O)[nH]c(=O)c2c1nc(Cc1cn3cc(C)sc3n1)n2CC1CCN(C)CC1

IC50 [1]: 58 nM
IC50 [2]: 357 nM
Compound: CCn1c(=O)[nH]c(=O)c2c1nc(Cc1cn3cc(C)sc3n1)n2Cc1cccc(C(=O)O)c1

IC50 [1]: 34 nM
IC50 [2]: 113 nM
Compound: CCn1c(=O)[nH]c(=O)c2c1nc(Cc1cn3cc(C)sc3n1)n2Cc1cc(C)cc(C)c1

IC50 [1]: 52 nM
IC50 [2]: 271 nM
Compound: CCn1c(=O)[nH]c(=O)c2c1nc(Cc1cn3cc(C)sc3n1)n2Cc1ccc(C(F)(F)F)cc1

IC50 [1]: 18 nM
IC50 [2]: 84 nM
Compound: CCn1c(=O)[nH]c(=O)c2c1nc(Cc1cn3cc(C)sc3n1)n2Cc1ccccn1

IC50 [1]: 38 nM
IC50 [2]: 343 nM
Compound: CCn1c(=O)[nH]c(=O)c2c1nc(Cc1cn3cc(C)sc3n1)n2CCCOC

CLint scaled [3]: < 115 mL/min/kg
Papp B→A at 5 µM [5]: 46.3 ×10⁻⁶ cm/s
fraction unbound [7]: 0.29
solubility [8]: > 200 µM
half-life [11]: 19 min
fraction unbound [12]: 0.39
Papp A→B at 5 µM [13]: 2.3 ×10⁻⁶ cm/s
half-life [14]: > 60 min
CLint scaled [15]: 367 mL/min/kg
solubility [16]: > 200 µM
solubility [17]: > 200 µM
Compound: CCn1c(=O)[nH]c(=O)c2c1nc(Cc1cn3ccccc3n1)n2Cc1ccc(-c2ccn(C)n2)cc1

IC50 [1]: 63 nM
IC50 [2]: 380 nM
Compound: CCn1c(=O)[nH]c(=O)c2c1nc(Cc1cn3c(n1)CCCC3)n2Cc1cccc(C(=O)NC[C@H](NC(=O)OCc2ccccc2)C(=O)OC)c1

IC50 [1]: 307 nM
IC50 [2]: 3270 nM
Compound: CCn1c(=O)[nH]c(=O)c2c1nc(Cc1cn3c(n1)CCCC3)n2Cc1cccc(C(=O)O)c1

IC50 [1]: 57 nM
IC50 [2]: 533 nM
Compound: CCn1c(=O)[nH]c(=O)c2c1nc(Cc1cn3cc(C)sc3n1)n2CCC(=O)OC

IC50 [1]: 57 nM
IC50 [2]: 772 nM
Compound: CCn1c(=O)[nH]c(=O)c2c1nc(Cc1cn3c(n1)CCCC3)n2CC1COC1

IC50 [1]: 37 nM
IC50 [2]: 300 nM
Compound: CCOC(=O)Cn1c(Cc2cn3cc(C)sc3n2)nc2c1c(=O)[nH]c(=O)n2CC

CLint scaled [3]: 174 mL/min/kg
Papp B→A at 5 µM [5]: 59.9 ×10⁻⁶ cm/s
fraction unbound [7]: 0.11
solubility [8]: < 10 µM
half-life [11]: 8 min
fraction unbound [12]: 0.11
Papp A→B at 5 µM [13]: 4.9 ×10⁻⁶ cm/s
half-life [14]: 40 min
CLint scaled [15]: 854 mL/min/kg
solubility [16]: < 10 µM
solubility [17]: < 10 µM
Compound: CCn1c(=O)[nH]c(=O)c2c1nc(Cc1cn3cc(Cl)sc3n1)n2Cc1ccc(-c2ccn(C)n2)cc1

IC50 [1]: 41 nM
IC50 [2]: 157 nM
Compound: CCn1c(=O)[nH]c(=O)c2c1nc(Cc1cn3cc(C)sc3n1)n2Cc1cccc(C(F)(F)F)c1

IC50 [1]: 25 nM
IC50 [2]: 243 nM
Compound: CCn1c(=O)[nH]c(=O)c2c1nc(Cc1cn3c(n1)CCCC3)n2Cc1cccc(C(=O)OC)c1

IC50 [1]: 51 nM
IC50 [2]: 151 nM
Compound: CCc1nc(C)ccc1OCC(=O)N1CCc2nc3n(c2C1c1ccc(Cl)cc1F)CCCC3 (racemic)
